Assay results: ChEMBL document CHEMBL1159057, “Novel anilinophthalimide derivatives as potential probes for beta-amyloid plaque in the brain” (Bioorg Med Chem, 2010)
Activity calls are given as the source filed them. No cut-off for these calls is given here.

Key:
[1] = molecular target: T1, Amyloid-beta precursor protein (Homo sapiens, UniProt P05067); experiment: Displacement of [125I-N-Methyl-4-(4-bromoanilino)phthalimide from beta-amyloid plaques isolated from Alzheimer's disease patient brain
[2] = molecular target: T1, Amyloid-beta precursor protein; experiment: Binding affinity to beta-amyloid plaques isolated from Alzheimer's disease patient brain at 50 uM by fluorescence micrography
[3] = Binding affinity to beta-amyloid plaques
Blood [4] = experiment: Biodistribution in Kunming mouse blood at 2 uCi, iv after 2 mins; type: ADME, organism-based; conditions: in vivo
Blood [5] = experiment: Biodistribution in Kunming mouse blood at 2 uCi, iv after 10 mins; type: ADME, organism-based; conditions: in vivo
Blood [6] = experiment: Biodistribution in Kunming mouse blood at 2 uCi, iv after 30 mins; type: ADME, organism-based; conditions: in vivo, 0.5 h
Blood [7] = experiment: Biodistribution in Kunming mouse blood at 2 uCi, iv after 60 mins; type: ADME, organism-based; conditions: in vivo, 1 h
Heart [8] = experiment: Biodistribution in Kunming mouse heart at 2 uCi, iv after 2 mins; type: ADME, organism-based; conditions: in vivo
Heart [9] = experiment: Biodistribution in Kunming mouse heart at 2 uCi, iv after 10 mins; type: ADME, organism-based; conditions: in vivo
Heart [10] = experiment: Biodistribution in Kunming mouse heart at 2 uCi, iv after 30 mins; type: ADME, organism-based; conditions: in vivo, 0.5 h
Heart [11] = experiment: Biodistribution in Kunming mouse heart at 2 uCi, iv after 60 mins; type: ADME, organism-based; conditions: in vivo, 1 h
Lung [12] = experiment: Biodistribution in Kunming mouse lung at 2 uCi, iv after 2 mins; type: ADME, organism-based; conditions: in vivo
Lung [13] = experiment: Biodistribution in Kunming mouse lung at 2 uCi, iv after 10 mins; type: ADME, organism-based; conditions: in vivo
Lung [14] = experiment: Biodistribution in Kunming mouse lung at 2 uCi, iv after 30 mins; type: ADME, organism-based; conditions: in vivo, 0.5 h
Lung [15] = experiment: Biodistribution in Kunming mouse lung at 2 uCi, iv after 60 mins; type: ADME, organism-based; conditions: in vivo, 1 h
Kidney [16] = experiment: Biodistribution in Kunming mouse kidney at 2 uCi, iv after 2 mins; type: ADME, organism-based; conditions: in vivo
Kidney [17] = experiment: Biodistribution in Kunming mouse kidney at 2 uCi, iv after 10 mins; type: ADME, organism-based; conditions: in vivo
Kidney [18] = experiment: Biodistribution in Kunming mouse kidney at 2 uCi, iv after 30 mins; type: ADME, organism-based; conditions: in vivo, 0.5 h
Kidney [19] = experiment: Biodistribution in Kunming mouse kidney at 2 uCi, iv after 60 mins; type: ADME, organism-based; conditions: in vivo, 1 h
Spleen [20] = experiment: Biodistribution in Kunming mouse spleen at 2 uCi, iv after 2 mins; type: ADME, organism-based; conditions: in vivo
Spleen [21] = experiment: Biodistribution in Kunming mouse spleen at 2 uCi, iv after 10 mins; type: ADME, organism-based; conditions: in vivo
Spleen [22] = experiment: Biodistribution in Kunming mouse spleen at 2 uCi, iv after 30 mins; type: ADME, organism-based; conditions: in vivo, 0.5 h
Spleen [23] = experiment: Biodistribution in Kunming mouse spleen at 2 uCi, iv after 60 mins; type: ADME, organism-based; conditions: in vivo, 1 h
Liver [24] = experiment: Biodistribution in Kunming mouse liver at 2 uCi, iv after 2 mins; type: ADME, organism-based; conditions: in vivo
Liver [25] = experiment: Biodistribution in Kunming mouse liver at 2 uCi, iv after 10 mins; type: ADME, organism-based; conditions: in vivo
Liver [26] = experiment: Biodistribution in Kunming mouse liver at 2 uCi, iv after 30 mins; type: ADME, organism-based; conditions: in vivo, 0.5 h
Liver [27] = experiment: Biodistribution in Kunming mouse liver at 2 uCi, iv after 60 mins; type: ADME, organism-based; conditions: in vivo, 1 h
Brain [28] = experiment: Biodistribution in Kunming mouse brain at 2 uCi, iv after 2 mins; type: ADME, organism-based; conditions: in vivo
Brain [29] = experiment: Biodistribution in Kunming mouse brain at 2 uCi, iv after 10 mins; type: ADME, organism-based; conditions: in vivo
Brain [30] = experiment: Biodistribution in Kunming mouse brain at 2 uCi, iv after 30 mins; type: ADME, organism-based; conditions: in vivo, 0.5 h
Brain [31] = experiment: Biodistribution in Kunming mouse brain at 2 uCi, iv after 60 mins; type: ADME, organism-based; conditions: in vivo, 1 h
[32] = Partition coefficient, log P at pH 7.4 phosphate buffer; type: physicochemical

T1 sequence (P05067 whole entry): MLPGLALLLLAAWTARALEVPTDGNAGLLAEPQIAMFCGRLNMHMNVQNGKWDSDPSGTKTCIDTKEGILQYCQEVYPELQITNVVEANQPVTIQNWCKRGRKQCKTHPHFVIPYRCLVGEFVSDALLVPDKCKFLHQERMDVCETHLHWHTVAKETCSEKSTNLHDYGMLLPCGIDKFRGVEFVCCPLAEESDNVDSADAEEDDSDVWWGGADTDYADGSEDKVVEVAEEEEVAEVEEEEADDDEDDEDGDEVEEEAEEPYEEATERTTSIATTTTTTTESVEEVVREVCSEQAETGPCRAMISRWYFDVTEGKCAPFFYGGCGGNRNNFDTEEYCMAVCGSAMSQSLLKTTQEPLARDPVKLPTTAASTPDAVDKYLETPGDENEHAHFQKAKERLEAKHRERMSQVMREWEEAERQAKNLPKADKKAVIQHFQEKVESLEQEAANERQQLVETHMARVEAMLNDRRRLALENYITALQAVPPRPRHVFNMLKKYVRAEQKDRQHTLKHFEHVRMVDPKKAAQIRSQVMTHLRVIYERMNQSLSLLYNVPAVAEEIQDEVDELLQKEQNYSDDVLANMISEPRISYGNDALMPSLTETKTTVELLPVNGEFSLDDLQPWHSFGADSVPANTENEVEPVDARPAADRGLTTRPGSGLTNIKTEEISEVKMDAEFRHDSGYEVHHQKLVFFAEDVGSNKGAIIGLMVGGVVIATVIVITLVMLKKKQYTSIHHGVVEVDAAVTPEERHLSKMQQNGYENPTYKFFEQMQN

## CN1C(=O)c2ccc(Nc3ccccc3)cc2C1=O
[1]
  Ki: 7.6 nM

## CN1C(=O)c2ccc(Nc3ccc(I)cc3)cc2C1=O
[1]
  Ki: 0.9 nM
[2]
  Activity: Active

## CN1C(=O)c2ccc(Nc3ccc(O)cc3)cc2C1=O
[1]
  Ki: 19.7 nM

## O=C1NC(=O)c2cc(Nc3ccccc3)c(Nc3ccccc3)cc21 [DAPH]
[1]
  Ki: > 1000 nM

## Cc1ccc(Nc2ccc3c(c2)C(=O)N(C)C3=O)cc1
[1]
  Ki: 4.1 nM
[2]
  Activity: Active

## COc1ccc2cc([C@H](C)C(=O)O)ccc2c1 [NAPROXEN]
[3]
  Ki: 5.7 nM

## CN1C(=O)c2cc(Nc3ccccc3)c(Nc3ccccc3)cc2C1=O
[1]
  Ki: > 1000 nM

## CC(=C(C#N)C#N)c1ccc2cc(N(C)CC[18F])ccc2c1
[3]
  Ki: 2.7 nM

## [11CH3]Nc1ccc(-c2nc3ccc(O)cc3s2)cc1 [PITTSBURGH COMPOUND B]
[3]
  Ki: 4.3 nM

## COc1ccc(Nc2ccc3c(c2)C(=O)N(C)C3=O)cc1
[1]
  Ki: 16.3 nM

## Nc1c(/N=N/c2ccc(-c3ccc(/N=N/c4cc(S(=O)(=O)O)c5ccccc5c4N)cc3)cc2)cc(S(=O)(=O)O)c2ccccc12 [CONGO RED]
[1]
  Ki: > 1000 nM

## CN1C(=O)c2ccc(Nc3ccc(Br)cc3)cc2C1=O
[1]
  Ki: 3.8 nM
[2]
  Activity: Active

## CN1C(=O)c2ccc(Nc3ccc([125I])cc3)cc2C1=O
[1]
  Kd: 0.21 nM
Blood [4]
  Drug uptake: 2.47 % ID/g
Blood [5]
  Drug uptake: 2.74 % ID/g
Blood [6]
  Drug uptake: 2.69 % ID/g
Blood [7]
  Drug uptake: 2.78 % ID/g
Heart [8]
  Drug uptake: 7.4 % ID/g
Heart [9]
  Drug uptake: 3.41 % ID/g
Heart [10]
  Drug uptake: 2.83 % ID/g
Heart [11]
  Drug uptake: 2.24 % ID/g
Lung [12]
  Drug uptake: 6.77 % ID/g
Lung [13]
  Drug uptake: 6.35 % ID/g
Lung [14]
  Drug uptake: 3.47 % ID/g
Lung [15]
  Drug uptake: 2.82 % ID/g
Kidney [16]
  Drug uptake: 9.81 % ID/g
Kidney [17]
  Drug uptake: 6.55 % ID/g
Kidney [18]
  Drug uptake: 3.59 % ID/g
Kidney [19]
  Drug uptake: 2.68 % ID/g
Spleen [20]
  Drug uptake: 5.64 % ID/g
Spleen [21]
  Drug uptake: 6.87 % ID/g
Spleen [22]
  Drug uptake: 3.7 % ID/g
Spleen [23]
  Drug uptake: 2.92 % ID/g
Liver [24]
  Drug uptake: 11.98 % ID/g
Liver [25]
  Drug uptake: 14.38 % ID/g
Liver [26]
  Drug uptake: 5.84 % ID/g
Liver [27]
  Drug uptake: 3.37 % ID/g
Brain [28]
  Drug uptake: 5.16 % ID/g
Brain [29]
  Drug uptake: 3.41 % ID/g
Brain [30]
  Drug uptake: 1.16 % ID/g
Brain [31]
  Drug uptake: 0.59 % ID/g
[32]
  logD: 2.16
